In PMC4865820, “Branched Peptide, B2088, Disrupts the Supramolecular Organization of Lipopolysaccharides and Sensitizes the Gram-negative Bacteria” (Scientific Reports, 2016):
Where two headings read alike, the source gives them in different places. Positions of bridges follow the written chain, without caps; N, C: chain ends. Non-standard residues stand in square brackets, D forms with d. Residues, ends and D or L forms follow the SMILES beside them. Chains are numbered I, II in the order given. *: point of attachment. X1 = CC[C@H](C)CCCCC(=O)*; Dab = NCC[C@H](N)C(=O)O

How the values were obtained:
K. pneumoniae ATCC10031 = type: cell-based
Procedure, shortened: (§1)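 Peptides two-fold diluted in Mueller-Hinton Broth (0.0976–50 μg/ml final) against 10^5–10^6 CFU/ml inoculum, 37 °C for 24 h with OD600 monitored every 30 min. MIC = lowest concentration with no visible growth; two independent duplicates.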

P. aeruginosa 23155 = type: cell-based
Procedure, shortened: as §1

[1] = test system: LPS (E. coli serotype 055:B5); experiment: BODIPY TR cadaverine (BC) displacement assay with LPS; type: binding; conditions: 5 mM HEPES pH 7.4, duplicates; for ED50 (50% displacement of BC dye from LPS; also called BC50): fluorescence ex 580/em 620 nm, with respect to PMB; for EC50: no unit in table, ED50 values in μM, read-out: BC50 (LPS binding)
Procedure, shortened: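 Peptides (0.02–25.6 μM, two-fold dilutions) mixed 1:1 with BODIPY TR cadaverine:LPS (E. coli 055:B5) mixture in 5 mM HEPES pH 7.4; fluorescence at 580/620 nm. Displacement normalized to polymyxin B (Fmax) and probe:LPS alone (F0); ED50 from curve fit, duplicates.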

P. aeruginosa ATCC 9027 = experiment: Outer membrane permeability assay (NPN); type: cell-based; conditions: no unit in table; Fig. S5 axis [Peptide], μM; 10 μM NPN, 5 mM HEPES pH 7.4, ex 355/em 405 nm; average of two titrations; read-out: PC50 (peptide concentration for half-maximal NPN intensity, OM permeability)
Procedure, shortened: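 Overnight MHB-grown cells were washed and resuspended in 5 mM HEPES pH 7.4 to OD600 0.200, then loaded with 10 μM NPN (final), with peptide titrated in after dye stabilization. Fluorescence ex 355/em 405 nm; PC50 is the peptide concentration giving half-maximal intensity, from a sigmoidal fit averaged over two titrations.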

[2] = MHB, 10^5–10^6 CFU/ml, 37 °C, 24 h, two independent duplicates

Compound	Minimum Inhibitory Concentration against K. pneumoniae ATCC10031 (K. pneumoniae ATCC10031; [2]) [µM]	Minimum Inhibitory Concentration against P. aeruginosa 23155 (P. aeruginosa 23155; [2]) [µM]	ED50 (50% displacement of BC dye from LPS; also called BC50) [1] [nM]	EC50 [1] [µM]	EC50 (P. aeruginosa ATCC 9027) [µM]	Minimum Inhibitory Concentration against K. pneumoniae ATCC10031 (K. pneumoniae ATCC10031; ATCC10031, 24 h) [µM]	Minimum Inhibitory Concentration against P. aeruginosa 23155 (P. aeruginosa 23155; 23155, 24 h) [µM]
CC[C@H](C)CCCCC(=O)N[C@@H](CCN)C(=O)N[C@H](C(=O)N[C@@H](CCN)C(=O)N[C@H]1CCNC(=O)[C@H]([C@@H](C)O)NC(=O)[C@H](CCN)NC(=O)[C@H](CCN)NC(=O)[C@H](CC(C)C)NC(=O)[C@@H](Cc2ccccc2)NC(=O)[C@H](CCN)NC1=O)[C@@H](C)O [Polymyxin B, polymyxin B, reference compound] (X1-[Dab]T[Dab][Dab][Dab][dF]L[Dab][Dab]T; lactam 4-C (inferred); N-terminus assumed)	0.57	0.57	1560 ± 20	1.56 ± 0.02	5.82 ± 0.6	–	–
CC(C)[C@H](NC(=O)[C@H](CCCCN)NC(=O)[C@H](CCCNC(=N)N)NC(=O)CNC(=O)[C@@H](N)CCCNC(=N)N)C(=O)N[C@H](C(=O)N[C@@H](CCCNC(=N)N)C(=O)N[C@@H](CCCNC(=N)N)C(=O)NCCCC[C@H](NC(=O)[C@H](CCCNC(=N)N)NC(=O)[C@H](CCCNC(=N)N)NC(=O)[C@@H](NC(=O)[C@@H](NC(=O)[C@H](CCCCN)NC(=O)[C@H](CCCNC(=N)N)NC(=O)CNC(=O)[C@@H](N)CCCNC(=N)N)C(C)C)C(C)C)C(=O)N[C@@H](CCCCN)C(=O)O)C(C)C [B2088] (I: H-RGRKVVRRKK-OH / II: H-RGRKVVRR; amide I:9-II:C; N-terminus and C-terminus assumed)	–	–	1920 ± 30	1.9 ± 0.1	13.2 ± 0.4	1.4	1.4
